Laboratory results: ChEMBL document CHEMBL1201862, “PubChem BioAssay data set” (2004)
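Five concentrations, 48 hours, 96-well plates. GI50: concentration for 50% inhibition of growth.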 Activity calls are given as the source filed them. No stated cut-off is given here; in the data, active = GI50 up to about 1.1 µM and inactive = higher.

Key:
Assay in all cases: NCI anticancer screen, dose series, 48 h
786-0 = system: 786-0
ACHN = system: ACHN
CCRF-CEM = system: CCRF-CEM
EKVX = system: EKVX
HOP-62 = system: HOP-62
KM12 = system: KM12
MDA-MB-231 = system: MDA-MB-231
MDA-MB-435 = system: MDA-MB-435
NCI/ADR-RES = system: NCI/ADR-RES
OVCAR-3 = system: OVCAR-3
OVCAR-4 = system: OVCAR-4
PC-3 = system: PC-3
RPMI-8226 = system: RPMI-8226
RXF 393 = system: RXF 393
SK-MEL-2 = system: SK-MEL-2
SNB-19 = system: SNB-19
SNB-75 = system: SNB-75
TK-10 = system: TK-10
A498 = system: A498

Measured: GI50

O=C(ON=c1c2ccccc2ccc2ccccc12)c1cc([N+](=O)[O-])cc([N+](=O)[O-])c1
inactive: 786-0 > 100 µM | ACHN 45.4 µM | CCRF-CEM 25.5 µM | EKVX 89.9 µM | HOP-62 > 100 µM | KM12 49 µM | MDA-MB-231 > 100 µM | MDA-MB-435 > 100 µM | NCI/ADR-RES 48.4 µM | OVCAR-3 94.6 µM | OVCAR-4 38.2 µM | PC-3 41.8 µM | RPMI-8226 48.5 µM | RXF 393 > 100 µM | SK-MEL-2 > 100 µM | SNB-19 > 100 µM | SNB-75 40.8 µM | TK-10 > 100 µM

CN1C(=O)C(O)CC1c1ccccc1F (stereo not drawn)
inactive: 786-0 > 100 µM | A498 > 100 µM | ACHN > 100 µM | CCRF-CEM > 100 µM | EKVX > 100 µM | HOP-62 > 100 µM | KM12 > 100 µM | MDA-MB-231 > 100 µM | MDA-MB-435 > 100 µM | NCI/ADR-RES > 100 µM | OVCAR-3 > 100 µM | OVCAR-4 > 100 µM | PC-3 > 100 µM | RPMI-8226 > 100 µM | RXF 393 > 100 µM | SK-MEL-2 > 100 µM | SNB-19 > 100 µM | SNB-75 > 100 µM

NC(=S)N/N=c1\cc(C(=O)Nc2ccc([N+](=O)[O-])cc2[N+](=O)[O-])oc2ccccc12
inactive: 786-0 > 100 µM | ACHN > 100 µM | CCRF-CEM > 100 µM | EKVX 49.8 µM | HOP-62 > 100 µM | KM12 > 100 µM | MDA-MB-231 > 100 µM | MDA-MB-435 > 100 µM | NCI/ADR-RES > 100 µM | OVCAR-3 85.5 µM | OVCAR-4 > 100 µM | PC-3 > 100 µM | RXF 393 > 100 µM | SK-MEL-2 > 100 µM | SNB-19 > 100 µM | SNB-75 > 100 µM | TK-10 > 100 µM

NS(=O)(=O)c1nnc(NC(=S)NC(=O)Nc2ccc(Cl)c(Cl)c2)s1
inactive: 786-0 28.3 µM | CCRF-CEM 28.1 µM | EKVX 26.3 µM | HOP-62 22.8 µM | KM12 18.7 µM | MDA-MB-231 30.4 µM | MDA-MB-435 19.4 µM | NCI/ADR-RES 25.4 µM | OVCAR-3 20.8 µM | OVCAR-4 19.5 µM | PC-3 27.3 µM | RPMI-8226 25.8 µM | RXF 393 19.1 µM | SK-MEL-2 31.8 µM | SNB-19 28.3 µM | SNB-75 17.4 µM | TK-10 34.9 µM

CCOC1NC(/N=C/c2ccc(OC)cc2)=C(C#N)C1C#N (stereo not drawn)
inactive: 786-0 > 100 µM | A498 > 100 µM | ACHN > 100 µM | CCRF-CEM 26.7 µM | EKVX 92 µM | HOP-62 > 100 µM | KM12 64.6 µM | MDA-MB-231 64.6 µM | MDA-MB-435 40.6 µM | NCI/ADR-RES > 100 µM | OVCAR-3 > 100 µM | OVCAR-4 18.4 µM | PC-3 46 µM | RPMI-8226 46.7 µM | RXF 393 34.5 µM | SK-MEL-2 29.9 µM | SNB-19 87.3 µM | TK-10 > 100 µM

Cc1cn(Cc2ccccc2CCO)c(=S)[nH]c1=O
inactive: 786-0 > 100 µM | A498 > 100 µM | ACHN > 100 µM | CCRF-CEM > 100 µM | EKVX > 100 µM | HOP-62 > 100 µM | KM12 > 100 µM | OVCAR-3 > 100 µM | OVCAR-4 > 100 µM | RPMI-8226 > 100 µM | RXF 393 > 100 µM | SK-MEL-2 > 100 µM | SNB-19 > 100 µM | SNB-75 > 100 µM | TK-10 > 100 µM

O=c1oc2ccc3ccccc3c2cc1-c1nnc(-c2ccc([N+](=O)[O-])cc2)[nH]1
inactive: 786-0 41.1 µM | A498 53.6 µM | ACHN 42.2 µM | CCRF-CEM > 100 µM | EKVX 20.7 µM | HOP-62 17.2 µM | KM12 > 100 µM | MDA-MB-435 > 100 µM | NCI/ADR-RES > 100 µM | OVCAR-3 > 100 µM | OVCAR-4 > 100 µM | PC-3 > 100 µM | RPMI-8226 > 100 µM | SK-MEL-2 44.6 µM | SNB-19 32.8 µM

Nc1nc(Cl)c(/C=N\O)c(NCC2(CO)CC(=O)C2)n1
inactive: 786-0 49.1 µM | A498 34.4 µM | ACHN 62.1 µM | CCRF-CEM 41.7 µM | EKVX > 100 µM | HOP-62 76.9 µM | KM12 24.5 µM | MDA-MB-231 80.7 µM | MDA-MB-435 95.1 µM | NCI/ADR-RES > 100 µM | OVCAR-3 60.1 µM | OVCAR-4 84.3 µM | PC-3 80.2 µM | RPMI-8226 3.33 µM | RXF 393 39.4 µM | SNB-19 > 100 µM | SNB-75 31.1 µM | TK-10 > 100 µM

Cc1cc(C)cc(NC(N)=S)c1
inactive: 786-0 92.5 µM | A498 > 100 µM | ACHN > 100 µM | CCRF-CEM 19.1 µM | EKVX > 100 µM | HOP-62 > 100 µM | KM12 > 100 µM | OVCAR-3 > 100 µM | OVCAR-4 > 100 µM | RPMI-8226 31.1 µM | RXF 393 20.2 µM | SK-MEL-2 > 100 µM | SNB-19 > 100 µM | SNB-75 > 100 µM | TK-10 > 100 µM

O=S(=O)(O)c1cc(O)c2c(O)c(/N=N/c3ccc(/C=C/c4ccc(/N=N/c5c(S(=O)(=O)O)cc6cc(S(=O)(=O)O)cc(O)c6c5O)cc4S(=O)(=O)O)c(S(=O)(=O)O)c3)c(S(=O)(=O)O)cc2c1
inactive: 786-0 > 100 µM | A498 > 100 µM | ACHN > 100 µM | CCRF-CEM > 100 µM | EKVX > 100 µM | HOP-62 > 100 µM | KM12 32.5 µM | OVCAR-3 > 100 µM | OVCAR-4 > 100 µM | RPMI-8226 > 100 µM | RXF 393 > 100 µM | SK-MEL-2 > 100 µM | SNB-19 > 100 µM | SNB-75 > 100 µM | TK-10 > 100 µM

CC(C)(c1ccccc1)c1ccc(Oc2ccc(C#N)c(C#N)c2)cc1
inactive: 786-0 > 10 µM | A498 > 10 µM | ACHN 33.8 µM | CCRF-CEM 56.5 µM | EKVX 46.1 µM | HOP-62 > 10 µM | KM12 > 10 µM | OVCAR-3 > 10 µM | OVCAR-4 7.82 µM | RPMI-8226 10.2 µM | RXF 393 92.9 µM | SK-MEL-2 > 10 µM | SNB-19 34.6 µM | SNB-75 > 10 µM | TK-10 > 10 µM

N#Cc1c(N)[nH]c(=S)c(C#N)c1-c1cccc(Cl)c1
inactive: 786-0 18.6 µM | A498 30.1 µM | ACHN 61.1 µM | EKVX 25.6 µM | HOP-62 42.4 µM | KM12 43.3 µM | MDA-MB-231 29.4 µM | MDA-MB-435 21.4 µM | NCI/ADR-RES 67.1 µM | OVCAR-3 26.9 µM | OVCAR-4 40.7 µM | PC-3 21.8 µM | RPMI-8226 23.8 µM | RXF 393 22.4 µM | SK-MEL-2 20.3 µM | SNB-19 56.2 µM | TK-10 65.2 µM
